Test results taken from publication PMC8619024, “COX Inhibitory and Cytotoxic Naphthoketal-Bearing Polyketides from Sparticola junci” (International Journal of Molecular Sciences, 2021).

Target: T1, COX-2
T1 construct: gene PTGS2; COX Activity Assay Kit (Cayman); species inferred from usual Cayman COX-2 (human recombinant; ovine possible); docking used PDB 3LN1
Test: COX peroxidase activity kit, TMPD oxidation at […] nm
Assay type: biochemical
Settings: DMSO; triplicate

How did the IC50 turn out when `O=C(C[C@H](O)C1(c2cccc(O)c2O)Oc2cccc3cccc(c23)O1)OC[C@H](O)CO` [compound 1, (8S)-(22R)-2,3-dihydroxypropyl-3-(2-(2,3-dihydroxyphenyl)naphtho[1,8-de][1,3]dioxin-2-yl)-3-hydroxypropanoate] was run?
Its IC50 is 300 nM.
